# pIC50: −log10 of the molar value.
# Biological target: Chromatin remodeling regulator CECR2 (Homo sapiens) (UniProt Q9BXF3)
# Test: Binding affinity to human CECR2 expressed in Escherichia coli BL21(DE3)-R3-pRARE2 assessed as change in melting temperature at 25 uM by SYPRO orange based protein stability shift assay
# Conditions: not given
# Chromatin remodeling regulator CECR2 (Homo sapiens), sequence (Q9BXF3 whole entry, looked up): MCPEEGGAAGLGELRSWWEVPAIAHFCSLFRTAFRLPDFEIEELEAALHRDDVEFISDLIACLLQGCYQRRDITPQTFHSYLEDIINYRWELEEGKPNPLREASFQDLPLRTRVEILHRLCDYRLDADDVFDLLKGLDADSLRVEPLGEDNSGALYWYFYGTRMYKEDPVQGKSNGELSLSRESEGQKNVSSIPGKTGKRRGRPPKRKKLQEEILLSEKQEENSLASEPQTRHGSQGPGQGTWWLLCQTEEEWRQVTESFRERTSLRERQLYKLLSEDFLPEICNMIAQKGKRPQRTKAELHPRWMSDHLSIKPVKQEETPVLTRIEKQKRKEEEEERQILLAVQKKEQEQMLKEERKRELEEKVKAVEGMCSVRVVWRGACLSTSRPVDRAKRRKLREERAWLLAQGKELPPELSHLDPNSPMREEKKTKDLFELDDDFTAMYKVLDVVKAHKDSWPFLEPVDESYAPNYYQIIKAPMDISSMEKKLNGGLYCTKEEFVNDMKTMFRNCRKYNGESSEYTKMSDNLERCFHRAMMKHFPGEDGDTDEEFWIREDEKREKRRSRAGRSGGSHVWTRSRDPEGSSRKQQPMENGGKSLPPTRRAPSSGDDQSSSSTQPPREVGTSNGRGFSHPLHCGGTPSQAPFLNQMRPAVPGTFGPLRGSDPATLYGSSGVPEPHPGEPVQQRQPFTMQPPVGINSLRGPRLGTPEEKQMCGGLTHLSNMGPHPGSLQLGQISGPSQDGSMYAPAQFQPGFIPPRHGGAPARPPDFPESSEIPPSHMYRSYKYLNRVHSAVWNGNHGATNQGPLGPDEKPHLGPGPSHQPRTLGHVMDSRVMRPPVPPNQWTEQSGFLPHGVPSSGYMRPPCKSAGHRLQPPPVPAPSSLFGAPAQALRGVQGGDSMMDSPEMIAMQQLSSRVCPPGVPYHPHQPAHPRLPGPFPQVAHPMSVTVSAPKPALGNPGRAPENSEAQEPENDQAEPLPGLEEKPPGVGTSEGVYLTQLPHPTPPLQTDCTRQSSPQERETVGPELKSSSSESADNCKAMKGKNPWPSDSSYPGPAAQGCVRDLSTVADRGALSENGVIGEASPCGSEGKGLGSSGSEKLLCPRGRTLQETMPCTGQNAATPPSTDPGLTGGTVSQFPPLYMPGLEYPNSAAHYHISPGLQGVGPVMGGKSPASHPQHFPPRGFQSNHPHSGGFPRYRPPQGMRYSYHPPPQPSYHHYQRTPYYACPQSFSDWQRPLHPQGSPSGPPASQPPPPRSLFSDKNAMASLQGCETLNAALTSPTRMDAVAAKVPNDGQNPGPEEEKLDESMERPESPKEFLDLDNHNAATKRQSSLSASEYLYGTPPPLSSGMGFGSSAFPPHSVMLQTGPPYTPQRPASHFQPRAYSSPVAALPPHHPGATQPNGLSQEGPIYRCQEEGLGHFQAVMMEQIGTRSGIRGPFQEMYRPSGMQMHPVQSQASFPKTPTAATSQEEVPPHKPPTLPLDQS
row,SMILES,ΔTm [°C]
1,Cc1noc(C)c1-c1cc(NC(=O)CCCCCC(=O)NO)cc(C(=O)c2ccccc2)c1,1.52
2,Cc1noc(C)c1-c1cc(NC(=O)CCCCCCC(=O)NO)cc(C(=O)c2ccccc2)c1,1.96
3,Cc1noc(C)c1-c1cc(OCCCCCC(=O)NO)cc(C(=O)c2ccccc2)c1,1.18
4,Cc1noc(C)c1-c1cc(NC(=O)CCCCC(=O)NO)cc(C(=O)c2ccccc2)c1,1.65
5,Cc1noc(C)c1-c1cc(OCCCCCCC(=O)NO)cc(C(O)c2ccccc2)c1 (configuration not stated),1.32
6,Cc1noc(C)c1-c1cc(OCCCCCCCC(=O)NO)cc(C(=O)c2ccccc2)c1,2.06
7,Cc1noc(C)c1-c1cccc(NC(=O)CCCCCC(=O)NO)c1,0.64

# Biological target: Transcription initiation factor TFIID subunit 1 (Homo sapiens) (UniProt P21675)
# Test: Binding affinity to human TAF1 expressed in Escherichia coli BL21(DE3)-R3-pRARE2 assessed as change in melting temperature at 25 uM by SYPRO orange based protein stability shift assay
# Conditions: not given
# Transcription initiation factor TFIID subunit 1 (Homo sapiens), sequence (P21675 whole entry): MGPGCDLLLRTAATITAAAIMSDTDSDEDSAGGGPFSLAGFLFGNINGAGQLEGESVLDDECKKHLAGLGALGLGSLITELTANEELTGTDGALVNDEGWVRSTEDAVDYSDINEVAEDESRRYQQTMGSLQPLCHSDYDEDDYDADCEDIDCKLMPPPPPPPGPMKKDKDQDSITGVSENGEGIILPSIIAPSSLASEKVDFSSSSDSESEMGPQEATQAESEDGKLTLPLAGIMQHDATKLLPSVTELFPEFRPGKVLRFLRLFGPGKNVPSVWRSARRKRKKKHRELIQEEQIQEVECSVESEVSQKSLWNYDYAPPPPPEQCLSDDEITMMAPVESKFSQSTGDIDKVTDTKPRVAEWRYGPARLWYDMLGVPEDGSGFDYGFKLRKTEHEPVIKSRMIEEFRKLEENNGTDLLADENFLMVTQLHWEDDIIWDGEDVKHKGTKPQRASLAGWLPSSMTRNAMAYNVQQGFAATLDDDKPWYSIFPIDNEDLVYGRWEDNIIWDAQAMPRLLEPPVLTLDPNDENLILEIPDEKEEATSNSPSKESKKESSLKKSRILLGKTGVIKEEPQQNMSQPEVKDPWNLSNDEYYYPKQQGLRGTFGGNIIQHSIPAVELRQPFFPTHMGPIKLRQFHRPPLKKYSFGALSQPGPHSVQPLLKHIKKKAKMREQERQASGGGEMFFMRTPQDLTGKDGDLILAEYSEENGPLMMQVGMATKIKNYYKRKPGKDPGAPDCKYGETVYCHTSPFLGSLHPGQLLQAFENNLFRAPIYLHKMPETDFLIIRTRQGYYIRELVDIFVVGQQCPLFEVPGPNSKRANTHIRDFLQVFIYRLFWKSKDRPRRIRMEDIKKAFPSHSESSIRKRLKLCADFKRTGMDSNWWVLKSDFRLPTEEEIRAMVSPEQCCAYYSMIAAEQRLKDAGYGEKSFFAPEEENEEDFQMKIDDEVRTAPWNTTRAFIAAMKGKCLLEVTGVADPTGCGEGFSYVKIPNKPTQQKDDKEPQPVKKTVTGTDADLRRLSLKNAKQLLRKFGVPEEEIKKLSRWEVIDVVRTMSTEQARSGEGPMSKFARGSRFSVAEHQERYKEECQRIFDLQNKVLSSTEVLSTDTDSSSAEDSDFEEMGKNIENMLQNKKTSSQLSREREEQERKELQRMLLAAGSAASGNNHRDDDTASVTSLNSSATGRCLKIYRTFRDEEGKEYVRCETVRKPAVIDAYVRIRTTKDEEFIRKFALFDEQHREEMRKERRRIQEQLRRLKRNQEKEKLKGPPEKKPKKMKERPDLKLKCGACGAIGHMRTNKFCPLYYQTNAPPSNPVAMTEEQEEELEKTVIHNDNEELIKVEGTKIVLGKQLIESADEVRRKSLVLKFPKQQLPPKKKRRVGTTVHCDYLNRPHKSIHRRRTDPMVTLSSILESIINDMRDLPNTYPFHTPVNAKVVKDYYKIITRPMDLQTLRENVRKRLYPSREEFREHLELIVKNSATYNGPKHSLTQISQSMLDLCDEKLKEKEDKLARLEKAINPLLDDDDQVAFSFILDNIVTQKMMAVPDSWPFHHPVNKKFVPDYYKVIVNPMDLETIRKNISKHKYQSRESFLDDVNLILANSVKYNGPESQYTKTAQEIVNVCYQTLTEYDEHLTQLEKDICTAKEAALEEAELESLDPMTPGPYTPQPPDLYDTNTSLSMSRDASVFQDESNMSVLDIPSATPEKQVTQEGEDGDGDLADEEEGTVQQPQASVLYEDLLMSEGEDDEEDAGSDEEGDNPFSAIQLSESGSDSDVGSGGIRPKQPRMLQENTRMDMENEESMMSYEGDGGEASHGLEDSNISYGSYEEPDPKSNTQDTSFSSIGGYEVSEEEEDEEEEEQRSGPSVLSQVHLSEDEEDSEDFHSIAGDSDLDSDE
row,SMILES,ΔTm [°C]
1,Cc1noc(C)c1-c1cc(NC(=O)CCCCCC(=O)NO)cc(C(=O)c2ccccc2)c1,1.76
2,Cc1noc(C)c1-c1cc(OCCCCCCC(=O)NO)cc(C(=O)c2ccccc2)c1,2.22
3,Cc1noc(C)c1-c1cc(NC(=O)CCCCCCC(=O)NO)cc(C(=O)c2ccccc2)c1,2.22
4,Cc1noc(C)c1-c1cc(OCCCCC(=O)NO)cc(C(=O)c2ccccc2)c1,1.14
5,Cc1noc(C)c1-c1cc(OCCCCCC(=O)NO)cc(C(=O)c2ccccc2)c1,1.69
6,Cc1noc(C)c1-c1cc(NC(=O)CCCCC(=O)NO)cc(C(=O)c2ccccc2)c1,1.95
7,Cc1noc(C)c1-c1cc(OCCCCCCC(=O)NO)cc(C(O)c2ccccc2)c1 (configuration not stated),1.72
8,Cc1noc(C)c1-c1cc(OCCCCCCCC(=O)NO)cc(C(=O)c2ccccc2)c1,1.77
9,Cc1noc(C)c1-c1cccc(NC(=O)CCCCCC(=O)NO)c1,1.08

# Biological target: Histone acetyltransferase KAT2B (Homo sapiens) (UniProt Q92831)
# Test: Binding affinity to human PCAF expressed in Escherichia coli BL21(DE3)-R3-pRARE2 assessed as change in melting temperature at 25 uM by SYPRO orange based protein stability shift assay
# Conditions: not given
# Histone acetyltransferase KAT2B (Homo sapiens), sequence (Q92831 whole entry, looked up): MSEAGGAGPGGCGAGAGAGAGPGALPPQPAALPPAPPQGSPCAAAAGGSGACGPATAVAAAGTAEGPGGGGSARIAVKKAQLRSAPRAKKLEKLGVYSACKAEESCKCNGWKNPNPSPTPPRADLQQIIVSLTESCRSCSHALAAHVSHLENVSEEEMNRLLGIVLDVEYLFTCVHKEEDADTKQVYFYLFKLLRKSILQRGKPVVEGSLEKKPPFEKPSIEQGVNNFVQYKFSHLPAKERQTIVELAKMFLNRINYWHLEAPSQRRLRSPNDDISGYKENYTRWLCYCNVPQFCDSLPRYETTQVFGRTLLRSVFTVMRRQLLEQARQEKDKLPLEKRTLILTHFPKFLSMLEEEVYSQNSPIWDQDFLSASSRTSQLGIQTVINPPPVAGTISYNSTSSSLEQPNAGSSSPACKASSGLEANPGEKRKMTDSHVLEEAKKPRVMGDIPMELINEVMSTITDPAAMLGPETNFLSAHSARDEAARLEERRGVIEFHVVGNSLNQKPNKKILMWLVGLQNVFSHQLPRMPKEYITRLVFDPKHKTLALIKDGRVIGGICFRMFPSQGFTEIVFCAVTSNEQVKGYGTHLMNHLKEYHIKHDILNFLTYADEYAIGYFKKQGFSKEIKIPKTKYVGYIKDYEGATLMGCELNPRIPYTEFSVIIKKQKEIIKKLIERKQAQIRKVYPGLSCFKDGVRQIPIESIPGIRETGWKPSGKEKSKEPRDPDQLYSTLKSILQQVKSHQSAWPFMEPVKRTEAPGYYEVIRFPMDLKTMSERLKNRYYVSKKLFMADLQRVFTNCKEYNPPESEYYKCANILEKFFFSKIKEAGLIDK
row,SMILES,ΔTm [°C]
1,Cc1noc(C)c1-c1cc(NC(=O)CCCCCC(=O)NO)cc(C(=O)c2ccccc2)c1,0.92
2,Cc1noc(C)c1-c1cc(OCCCCCCC(=O)NO)cc(C(=O)c2ccccc2)c1,1.04
3,Cc1noc(C)c1-c1cc(NC(=O)CCCCCCC(=O)NO)cc(C(=O)c2ccccc2)c1,1.35
4,Cc1noc(C)c1-c1cc(OCCCCC(=O)NO)cc(C(=O)c2ccccc2)c1,-7.9
5,Cc1noc(C)c1-c1cc(OCCCCCC(=O)NO)cc(C(=O)c2ccccc2)c1,0.28
6,Cc1noc(C)c1-c1cc(NC(=O)CCCCC(=O)NO)cc(C(=O)c2ccccc2)c1,0.31
7,Cc1noc(C)c1-c1cc(OCCCCCCC(=O)NO)cc(C(O)c2ccccc2)c1 (configuration not stated),0.35
8,Cc1noc(C)c1-c1cc(OCCCCCCCC(=O)NO)cc(C(=O)c2ccccc2)c1,-0.31
9,Cc1noc(C)c1-c1cccc(NC(=O)CCCCCC(=O)NO)c1,0.05

# Biological target: CREB-binding protein (Homo sapiens) (UniProt Q92793)
# Test: Binding affinity to human CREBBP expressed in Escherichia coli BL21(DE3)-R3-pRARE2 assessed as change in melting temperature at 25 uM by SYPRO orange based protein stability shift assay
# Conditions: not given
row,SMILES,ΔTm [°C]
1,Cc1noc(C)c1-c1cc(NC(=O)CCCCCC(=O)NO)cc(C(=O)c2ccccc2)c1,2.32
2,Cc1noc(C)c1-c1cc(OCCCCCCC(=O)NO)cc(C(=O)c2ccccc2)c1,2.13
3,Cc1noc(C)c1-c1cc(NC(=O)CCCCCCC(=O)NO)cc(C(=O)c2ccccc2)c1,3.24
4,Cc1noc(C)c1-c1cc(OCCCCC(=O)NO)cc(C(=O)c2ccccc2)c1,-0.01
5,Cc1noc(C)c1-c1cc(OCCCCCC(=O)NO)cc(C(=O)c2ccccc2)c1,1.69
6,Cc1noc(C)c1-c1cc(NC(=O)CCCCC(=O)NO)cc(C(=O)c2ccccc2)c1,2.05
7,Cc1noc(C)c1-c1cc(OCCCCCCC(=O)NO)cc(C(O)c2ccccc2)c1 (configuration not stated),4.03
8,Cc1noc(C)c1-c1cc(OCCCCCCCC(=O)NO)cc(C(=O)c2ccccc2)c1,0.65
9,Cc1noc(C)c1-c1cccc(NC(=O)CCCCCC(=O)NO)c1,0.73

# Biological target: Histone deacetylase 1 (Homo sapiens, UniProt Q13547)
# Test: Inhibition of recombinant HDAC1 (unknown origin) using of Fluor-de-Lys substrate incubated for 10 mins by fluorimetric assay
# Conditions: not given
# Histone deacetylase 1, sequence (Q13547 whole entry): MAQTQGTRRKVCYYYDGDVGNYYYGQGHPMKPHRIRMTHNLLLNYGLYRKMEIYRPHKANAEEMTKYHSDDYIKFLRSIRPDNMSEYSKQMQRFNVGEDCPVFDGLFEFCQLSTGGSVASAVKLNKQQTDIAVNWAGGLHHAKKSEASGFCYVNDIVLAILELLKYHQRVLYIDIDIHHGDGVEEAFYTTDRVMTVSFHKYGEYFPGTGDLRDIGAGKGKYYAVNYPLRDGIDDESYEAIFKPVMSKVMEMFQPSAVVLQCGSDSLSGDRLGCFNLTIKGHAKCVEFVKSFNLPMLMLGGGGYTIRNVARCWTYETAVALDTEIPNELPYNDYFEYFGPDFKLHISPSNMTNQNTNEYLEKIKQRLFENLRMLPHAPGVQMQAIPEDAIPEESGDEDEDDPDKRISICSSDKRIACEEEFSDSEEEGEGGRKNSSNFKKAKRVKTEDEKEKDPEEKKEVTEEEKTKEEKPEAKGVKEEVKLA
row,SMILES,pIC50
1,Cc1noc(C)c1-c1cc(NC(=O)CCCCCC(=O)NO)cc(C(=O)c2ccccc2)c1,6.57
2,Cc1noc(C)c1-c1cc(OCCCCCCC(=O)NO)cc(C(=O)c2ccccc2)c1,5.84
3,Cc1noc(C)c1-c1cc(NC(=O)CCCCCCC(=O)NO)cc(C(=O)c2ccccc2)c1,6.82
4,Cc1noc(C)c1-c1cc(OCCCCC(=O)NO)cc(C(=O)c2ccccc2)c1,5.26
5,Cc1noc(C)c1-c1cc(OCCCCCC(=O)NO)cc(C(=O)c2ccccc2)c1,5.83
6,Cc1noc(C)c1-c1cc(NC(=O)CCCCC(=O)NO)cc(C(=O)c2ccccc2)c1,6.12
7,Cc1noc(C)c1-c1cc(OCCCCCCC(=O)NO)cc(C(O)c2ccccc2)c1 (configuration not stated),6.01
8,Cc1noc(C)c1-c1cc(OCCCCCCCC(=O)NO)cc(C(=O)c2ccccc2)c1,5.76
9,Cc1noc(C)c1-c1cccc(NC(=O)CCCCCC(=O)NO)c1,6.44

# Biological target: T1, Bromodomain-containing protein 4 (Homo sapiens, UniProt O60885)
# Conditions: not given
row,SMILES,ΔTm [°C]
1,Cc1noc(C)c1-c1cc(NC(=O)CCCCCC(=O)NO)cc(C(=O)c2ccccc2)c1,6.37
2,Cc1noc(C)c1-c1cc(OCCCCCCC(=O)NO)cc(C(=O)c2ccccc2)c1,7.41
3,Cc1noc(C)c1-c1cc(NC(=O)CCCCCCC(=O)NO)cc(C(=O)c2ccccc2)c1,7.49
4,Cc1noc(C)c1-c1cc(OCCCCC(=O)NO)cc(C(=O)c2ccccc2)c1,5.89
5,Cc1noc(C)c1-c1cc(OCCCCCC(=O)NO)cc(C(=O)c2ccccc2)c1,7.54
6,Cc1noc(C)c1-c1cc(NC(=O)CCCCC(=O)NO)cc(C(=O)c2ccccc2)c1,6.21
7,Cc1noc(C)c1-c1cc(OCCCCCCC(=O)NO)cc(C(O)c2ccccc2)c1 (configuration not stated),7.53
8,Cc1noc(C)c1-c1cc(OCCCCCCCC(=O)NO)cc(C(=O)c2ccccc2)c1,4.91
9,Cc1noc(C)c1-c1cccc(NC(=O)CCCCCC(=O)NO)c1,3.58

# System: K562
# Test: Antiproliferative activity against human K562 cells assessed as reduction in cell viability incubated for 72 hrs by Alamar blue assay
# Format: functional, cell-based
# Conditions: K562, 72 h
row,SMILES,pIC50
1,Cc1noc(C)c1-c1cc(NC(=O)CCCCCC(=O)NO)cc(C(=O)c2ccccc2)c1,5.63
2,Cc1noc(C)c1-c1cc(NC(=O)CCCCCCC(=O)NO)cc(C(=O)c2ccccc2)c1,5.73
3,O=C(CCCCCCC(=O)Nc1ccccc1)NO [VORINOSTAT],6.77
4,Cc1sc2c(c1C)C(c1ccc(Cl)cc1)=N[C@@H](CC(=O)OC(C)(C)C)c1nnc(C)n1-2 (racemic),6.19

# Biological target: T2, Bromodomain-containing protein 9 (Homo sapiens) (UniProt Q9H8M2)
# T2 sequence (whole entry): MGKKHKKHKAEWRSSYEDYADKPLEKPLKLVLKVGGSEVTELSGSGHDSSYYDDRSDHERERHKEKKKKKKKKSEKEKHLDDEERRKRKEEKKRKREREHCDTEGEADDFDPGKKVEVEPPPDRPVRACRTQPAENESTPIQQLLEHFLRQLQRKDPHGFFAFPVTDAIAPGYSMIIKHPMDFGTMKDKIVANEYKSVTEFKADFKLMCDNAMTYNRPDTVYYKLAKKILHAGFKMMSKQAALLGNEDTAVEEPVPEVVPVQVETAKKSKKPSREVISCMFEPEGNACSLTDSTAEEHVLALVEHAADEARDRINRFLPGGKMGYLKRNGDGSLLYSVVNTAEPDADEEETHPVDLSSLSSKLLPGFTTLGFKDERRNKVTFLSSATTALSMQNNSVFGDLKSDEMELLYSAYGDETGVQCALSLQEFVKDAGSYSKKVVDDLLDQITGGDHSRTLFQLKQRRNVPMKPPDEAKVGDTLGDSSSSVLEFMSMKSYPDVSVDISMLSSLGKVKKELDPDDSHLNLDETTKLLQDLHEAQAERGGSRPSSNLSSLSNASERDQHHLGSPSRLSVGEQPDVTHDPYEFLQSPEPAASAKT
# Test: Binding affinity to human BRD9 expressed in Escherichia coli BL21(DE3)-R3-pRARE2 assessed as change in melting temperature at 25 uM by SYPRO orange based protein stability shift assay
# Conditions: not given
row,SMILES,ΔTm [°C]
1,Cc1noc(C)c1-c1cc(NC(=O)CCCCCC(=O)NO)cc(C(=O)c2ccccc2)c1,2.26
2,Cc1noc(C)c1-c1cc(OCCCCCCC(=O)NO)cc(C(=O)c2ccccc2)c1,1.72
3,Cc1noc(C)c1-c1cc(NC(=O)CCCCCCC(=O)NO)cc(C(=O)c2ccccc2)c1,2.97
4,Cc1noc(C)c1-c1cc(OCCCCC(=O)NO)cc(C(=O)c2ccccc2)c1,-0.75
5,Cc1noc(C)c1-c1cc(OCCCCCC(=O)NO)cc(C(=O)c2ccccc2)c1,1.56
6,Cc1noc(C)c1-c1cc(NC(=O)CCCCC(=O)NO)cc(C(=O)c2ccccc2)c1,2.79
7,Cc1noc(C)c1-c1cc(OCCCCCCC(=O)NO)cc(C(O)c2ccccc2)c1 (configuration not stated),1.55
8,Cc1noc(C)c1-c1cc(OCCCCCCCC(=O)NO)cc(C(=O)c2ccccc2)c1,1.22
9,Cc1noc(C)c1-c1cccc(NC(=O)CCCCCC(=O)NO)c1,-0.13

# System: MV4-11
# Test: Antiproliferative activity against human MV4-11 cells assessed as reduction in cell viability incubated for 72 hrs by Alamar blue assay
# Format: functional, cell-based
# Conditions: MV4-11, 72 h
row,SMILES,pIC50
1,Cc1noc(C)c1-c1cc(NC(=O)CCCCCC(=O)NO)cc(C(=O)c2ccccc2)c1,5.98
2,Cc1noc(C)c1-c1cc(NC(=O)CCCCCCC(=O)NO)cc(C(=O)c2ccccc2)c1,6.04
3,Cc1sc2c(c1C)C(c1ccc(Cl)cc1)=N[C@@H](CC(=O)OC(C)(C)C)c1nnc(C)n1-2 (racemic),6.62

# Biological target: T1, Bromodomain-containing protein 4
# Test: Inhibition of human BRD4 expressed in Escherichia coli BL21(DE3)-R3-pRARE2 by bromodomain alphascreen peptide displacement assay
# Conditions: not given
row,SMILES,pIC50
1,Cc1noc(C)c1-c1cc(NC(=O)CCCCCC(=O)NO)cc(C(=O)c2ccccc2)c1,6.07
2,Cc1noc(C)c1-c1cc(OCCCCCCC(=O)NO)cc(C(=O)c2ccccc2)c1,5.98
3,Cc1noc(C)c1-c1cc(NC(=O)CCCCCCC(=O)NO)cc(C(=O)c2ccccc2)c1,6.17
4,Cc1noc(C)c1-c1cc(OCCCCC(=O)NO)cc(C(=O)c2ccccc2)c1,5.83
5,Cc1noc(C)c1-c1cc(OCCCCCC(=O)NO)cc(C(=O)c2ccccc2)c1,5.86
6,Cc1noc(C)c1-c1cc(NC(=O)CCCCC(=O)NO)cc(C(=O)c2ccccc2)c1,6.11
7,Cc1noc(C)c1-c1cc(OCCCCCCC(=O)NO)cc(C(O)c2ccccc2)c1 (configuration not stated),6.11
8,Cc1noc(C)c1-c1cc(OCCCCCCCC(=O)NO)cc(C(=O)c2ccccc2)c1,5.52
9,Cc1noc(C)c1-c1cccc(NC(=O)CCCCCC(=O)NO)c1,5.43

# Source: ChEMBL document CHEMBL3817837, “Targeting epigenetic reader and eraser: Rational design, synthesis and in vitro evaluation of dimethylisoxazoles derivatives as BRD4/HDAC dual inhibitors” (Bioorg Med Chem Lett, 2016)
